Experimental data: WO2019242687A1, “1,3-dioxane-4,6-dione compound, and preparation method, pharmaceutical composition, and application thereof” (Shanghai Institute of Materia Medica of CAS, priority 2018, dated 2018)
Positions count from the first letter of the chain named. Entries after “also recorded” stand apart in the source; their conditions may differ.

Assays:
[1] = target: T1, SIRT1 F414A (Homo sapiens, UniProt Q96EB6, F414A); test: Inhibitory constant on SIRT1 mutant F414A; type: biochemical
T1 construct: made in house
T1 sequence (Q96EB6 1-747 F414A): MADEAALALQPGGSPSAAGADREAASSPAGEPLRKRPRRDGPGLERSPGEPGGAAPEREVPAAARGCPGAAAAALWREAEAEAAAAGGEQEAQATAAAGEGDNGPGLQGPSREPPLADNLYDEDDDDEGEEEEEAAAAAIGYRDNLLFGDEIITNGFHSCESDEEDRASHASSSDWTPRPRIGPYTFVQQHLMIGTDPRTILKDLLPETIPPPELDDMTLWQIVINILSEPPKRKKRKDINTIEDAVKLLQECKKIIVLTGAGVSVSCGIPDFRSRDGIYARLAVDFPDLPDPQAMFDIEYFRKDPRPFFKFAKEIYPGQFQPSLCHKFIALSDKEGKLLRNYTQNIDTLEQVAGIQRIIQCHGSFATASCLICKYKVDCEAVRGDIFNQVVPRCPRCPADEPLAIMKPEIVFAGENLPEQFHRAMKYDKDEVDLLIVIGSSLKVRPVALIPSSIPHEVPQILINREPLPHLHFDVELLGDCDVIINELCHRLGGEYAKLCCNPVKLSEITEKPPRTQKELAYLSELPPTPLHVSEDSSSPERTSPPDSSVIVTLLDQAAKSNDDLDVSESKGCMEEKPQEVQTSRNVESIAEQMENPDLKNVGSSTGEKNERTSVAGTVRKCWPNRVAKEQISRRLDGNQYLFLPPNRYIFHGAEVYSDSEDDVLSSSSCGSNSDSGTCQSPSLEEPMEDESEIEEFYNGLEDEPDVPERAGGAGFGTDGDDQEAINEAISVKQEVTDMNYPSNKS

[2] = target: T2, mini-hSIRT1 protein (SIRT1 Cy5) (Homo sapiens, UniProt Q96EB6); test: Microscale thermophoresis (MST) binding experiment
T2 sequence (Q96EB6 with tags, fused parts or gaps limits assumed): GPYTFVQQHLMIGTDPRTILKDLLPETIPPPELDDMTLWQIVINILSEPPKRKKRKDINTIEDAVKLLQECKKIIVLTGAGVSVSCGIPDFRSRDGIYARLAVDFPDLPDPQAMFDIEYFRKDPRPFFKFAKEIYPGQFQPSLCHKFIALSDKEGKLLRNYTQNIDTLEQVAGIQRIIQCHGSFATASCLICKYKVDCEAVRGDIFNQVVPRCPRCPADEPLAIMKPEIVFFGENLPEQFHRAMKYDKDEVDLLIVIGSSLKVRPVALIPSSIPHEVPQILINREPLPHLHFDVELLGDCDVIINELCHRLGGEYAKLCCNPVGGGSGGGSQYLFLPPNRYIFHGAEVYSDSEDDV

[3] = target: T3, SIRT1 F273L (Homo sapiens, UniProt Q96EB6, F273L); test: Inhibitory constant on SIRT1 mutant F273L; type: biochemical
T3 construct: made in house
T3 sequence (Q96EB6 1-747 F273L): T1 sequence (Q96EB6 1-747 F414A) with F273L, A414F

[4] = target: T4, SIRT1 D348A (Homo sapiens, UniProt Q96EB6, D348A); test: Inhibitory constant on SIRT1 mutant D348A; type: biochemical
T4 construct: made in house
T4 sequence (Q96EB6 1-747 D348A): T1 sequence (Q96EB6 1-747 F414A) with D348A, A414F

[5] = test system: p53 acetylation levels in SH-SY5Y human neuroblastoma cells; test: Effect of compounds on p53 acetylation level in cells (Western blot); type: cell-based; settings: ATRA-induced differentiation, compound 10 μM, 2 h, Figure 5

Structure (SMILES): COc1cc(C=C2C(=O)OC(c3ccccc3)OC2=O)cc(Br)c1O (stereo not shown) [Compound S3, 5-(3-bromo-4-hydroxy-5-methoxybenzylidene) -2-phenyl-1,3-dioxane-4,6-dione]
- Ki [1]: 25.5 µM
- effect of mutation on inhibitory activity of compound ([1]; compared with the other mutants): 影响最大
- type of inhibition toward NAD+ ([2]; MST, Figure 3): non-competitive inhibitor of NAD +
- type of inhibition/binding toward Abz polypeptide ([2]; MST, Figure 3): competitive inhibitor of Abz polypeptide; also recorded: competitively binds to the binding site of the substrate polypeptide Abz
- Kd of binding to SIRT1 (change) ([2]; with 500 μM Abz polypeptide): increased
- binding curve with SIRT1 protein (shift), with Abz polypeptide ([2]; with 500 μM Abz polypeptide): shifted to the right
- binding curve with SIRT1 protein (shift), with NAD+ ([2]; with 5 mM NAD+): did not change significantly
- Ki [3]: 0.85 µM
- Ki [4]: 4.33 µM
- effect on decrease of p53 acetylation level [5]: 抑制ATRA诱导的SH-SY5Y细胞分化过程中p53乙酰化水平降低
